Here are results for nine compounds from patent publication US9615577B2, “Herbicidally active cyclic dione compounds, or derivatives therefor, substituted by a phenyl which has an alkynyl-containing substituent” (Syngenta Limited, priority 2012, dated 2017).

What all share (assay type): in vivo
Assay [1] has as its system Abutilon theophasti Medik. (ABUTH). Description: Test 1A glasshouse assay for herbicidal activity, pre-emergence. To be noted: 312 h, 250 g/ha, evaluated after 13 days, read-out: percentage phytotoxicity ABUTH. Here is the method: (§1) Seeds of a variety of test species were sown in standard soil in pots. After cultivation for one day (pre-emergence) or after 8 days cultivation (post-emergence) under controlled conditions in a glasshouse (at 24/16° C., day/night; 14 hours light; 65% humidity), the plants were sprayed with an aqueous spray solution derived from the formulation of the technical active ingredient in acetone/I water (50:50) solution containing 0.5% Tween 20 (polyoxyethelyene sorbitan monolaurate, CAS RN 9005-64-5). The test plants were then grown in a glasshouse under controlled conditions in a glasshouse (at 24/16° C., day/night; 14 hours light; 65% humidity) and watered twice daily. After 13 days for pre and post-emergence, the test was evaluated visually for percentage phytotoxicity to the plant (where 100=total damage to plant; 0=no damage to plant).
(§2) Alopecurus myosuroides (ALOMY), Setaria faberi (SETFA), Echinochloa crus-galli (ECHCG), Solanum nigrum (SOLNI), Amaranthus retroflexus (AMARE), Ipomoea hederacea (IPOHE), and Abutilon theophasti Medik. (ABUTH, common English name “velvetleaf”). Of these, Alopecurus myosuroides (ALOMY), Setaria faberi (SETFA), and Echinochloa crus-galli (ECHCG) are grassy monocotyledonous weeds.

Assay [2] concerns Alopecurus myosuroides (ALOMY). The assay is described as above. To be noted: 312 h, 250 g/ha, evaluated after 13 days, read-out: percentage phytotoxicity ALOMY. Here is the method:
as §1, §2

Assay [3] relates to Echinochloa crus-galli (ECHCG). The description is as above. As to conditions: 312 h, 250 g/ha, evaluated after 13 days, read-out: percentage phytotoxicity ECHCG. As to the method:
as §1, §2

The subject of assay [4] is Amaranthus retroflexus (AMARE). The assay is described as above. To be noted: 312 h, 250 g/ha, evaluated after 13 days, read-out: percentage phytotoxicity AMARE. Here is the method:
as §1, §2

Assay [5] relates to Setaria faberi (SETFA). The description is as above. As to conditions: 312 h, 250 g/ha, evaluated after 13 days, read-out: percentage phytotoxicity SETFA. Here is the method: as §1, §2
Assay [6] deals with Abutilon theophasti Medik. (ABUTH). Description: Test 1A glasshouse assay for herbicidal activity, post-emergence. To be noted: 312 h, evaluated after 13 days, read-out: percentage phytotoxicity ABUTH. As to the method: as §1, §2
The subject of assay [7] is Alopecurus myosuroides (ALOMY). Described as above. To be noted: 312 h, evaluated after 13 days, read-out: percentage phytotoxicity ALOMY. As to the method: as §1, §2
Assay [8] deals with Echinochloa crus-galli (ECHCG). The description is as above. To be noted: 312 h, evaluated after 13 days, read-out: percentage phytotoxicity ECHCG. Here is the method:
as §1, §2

The test system of assay [9] is Amaranthus retroflexus (AMARE). The description is as above. To be noted: 312 h, evaluated after 13 days, read-out: percentage phytotoxicity AMARE. As to the method: as §1, §2
The test system of assay [10] is Setaria faberi (SETFA). The assay is described as above. To be noted: 312 h, evaluated after 13 days, read-out: percentage phytotoxicity SETFA. Here is the method:
as §1, §2

For assay [11], the system named is Alopecurus myosuroides (ALOMY). Description: Biological Example 2 comparative herbicidal data, post-emergence glasshouse screen. As to conditions: 312 h, read-out: Post-emergence herbicidal activities (percentage phytotoxicity) ALOMY; for pest or weed control at 15.625 g/ha: 15.625 g/ha application rate; for pest or weed control at 62.5 g/ha: 62.5 g/ha application rate. As to the method:
as §1
(§3) Comparative herbicidal data is given below for certain exemplified compounds with 4-(prop-1-ynyl)-2,6-dimethylphenyl or 4-(chloroethynyl)-2,6-dimethylphenyl headgroups, compared to the corresponding compounds with either 4-ethynyl-2,6-dimethylphenyl or 2,4,6-trimethylphenyl headgroups, as follows. Comparative herbicidal data is also given below for certain exemplified compounds with 4-(prop-1-ynyl)-2-chloro-6-methoxyphenyl headgroups, compared to the corresponding compounds with 4-ethynyl-2-chloro-6-methoxyphenyl or 4-(but-1-ynyl)-2-chloro-6-methoxyphenyl or 4-methyl-2-chloro-6-methoxyphenyl or 2-chloro-6-methoxyphenyl headgroups, as follows.
(§4) Except where specified otherwise, the glasshouse screen for herbicidal activity is substantially the same as that presented in Biological Example 1A (Test 1A) hereinabove. The weed abbreviations are as defined in Biological Example 1A.

Assay [12] deals with Echinochloa crus-galli (ECHCG). Described as above. To be noted: 312 h, read-out: Post-emergence herbicidal activities (percentage phytotoxicity) ECHCG; for pest or weed control at 15.625 g/ha: 15.625 g/ha application rate; for pest or weed control at 62.5 g/ha: 62.5 g/ha application rate. As to the method: as §1, §3, §4
Assay [13] deals with Setaria faberi (SETFA). The description is as above. As to conditions: 312 h, read-out: Post-emergence herbicidal activities (percentage phytotoxicity) SETFA; for pest or weed control at 15.625 g/ha: 15.625 g/ha application rate; for pest or weed control at 62.5 g/ha: 62.5 g/ha application rate. As to the method:
as §1, §3, §4

Structures are written as SMILES.

In the case of `CC#Cc1ccc(C2C(=O)C3CCC(C3)C2=O)c(Cl)c1` (centres unmarked) [Compound A-11], the pest or weed control at 250 g/ha in assay [1] worked out at 50%; in assay [2], 100%; in assay [3], 100%; in assay [4], 70%; in the assay on Setaria faberi (SETFA) [5], 80%; in assay [6], 80%. In addition, the pest or weed control at 250 g/ha in [7] worked out at 100%; in [8], 100%; in assay [9], 30%; in the assay with Setaria faberi (SETFA) [10], 100%.
As for `CC#Cc1cc(Cl)c(C2C(=O)C3CCC(C3)C2=O)c(OCC(F)(F)F)c1` (centres unmarked) [Compound A-19, 3-[2-chloro-4-prop-1-ynyl-6-(2,2,2-trifluoroethoxyl)phenyl]bicyclo[3.2.1]octane-2,4-dione], the pest or weed control at 250 g/ha was 0% in assay [1]; 40% in assay [2]; 60% in [3]; 0% in [4]; 60% with Setaria faberi (SETFA) [5]; 0% in [6]. In addition, the pest or weed control at 250 g/ha in [7] was 70%; in [8], 100%; in assay [9], 0%; with Setaria faberi (SETFA) [10], 90%.
For `CC#Cc1cc(Cl)c(C2C(=O)CC(CCSC)CC2=O)c(OC)c1` (centres unmarked) [Compound A-23, 2-(2-Chloro-6-methoxy-4-prop-1-ynyl-phenyl)-5-(2-methylsulfanylethyl)cyclohexane-1,3-dione], the pest or weed control at 250 g/ha in assay [1] is 30%; in assay [2] it was 90%; in assay [3], 100%; in assay [4], 70%; with Setaria faberi (SETFA) [5] it was 90%; in [6] it was 70%. The pest or weed control at 250 g/ha in assay [7] came out at 90%; in assay [8], 100%; in [9], 20%; in the assay on Setaria faberi (SETFA) [10] it was 100%. The pest or weed control at 30 g/ha in [6] amounted to 30%; in assay [7] it was 60%; in assay [8], 100%; in [9] it was 10%; with Setaria faberi (SETFA) [10], 100%.
Consider `CC#Cc1cc(Cl)c(C2=C(OC(=O)c3ccc(Cl)cc3)CC(C3CCOCC3)CC2=O)c(OC)c1` (centres unmarked) [Compound P-3], for which the pest or weed control at 250 g/ha in assay [1] stood at 80%; in assay [2], 100%; in [3], 100%; in [4], 100%; with Setaria faberi (SETFA) [5] it was 100%; in assay [6] it was 80%. Besides, the pest or weed control at 250 g/ha was 90% in assay [7], 100% in assay [8], 80% in assay [9] and 100% in the assay with Setaria faberi (SETFA) [10]. The pest or weed control at 8 g/ha in [6] (8 g/ha) was 20%; in [7] (8 g/ha) it was 90%; in [8] (8 g/ha), 100%; in assay [9] (8 g/ha), 20%; with Setaria faberi (SETFA) [10] (8 g/ha), 100%. The pest or weed control at 30 g/ha in [6] stood at 70%; in assay [7] it was 100%; in [8], 100%; in [9], 80%; with Setaria faberi (SETFA) [10] it was 100%.
As for `CC#Cc1cc(C)c(C2=C(OS(C)(=O)=O)CC(CC3CCOCC3)CC2=O)c(C)c1` (centres unmarked) [Compound P-4], the pest or weed control at 250 g/ha in assay [1] was determined as 10%; in assay [2], 80%; in assay [3], 100%; in [4] it was 20%; in the assay with Setaria faberi (SETFA) [5] it was 80%; in assay [6], 0%. Moreover, the pest or weed control at 250 g/ha in assay [7] turned out to be 80%; in assay [8], 80%; in assay [9], 0%; with Setaria faberi (SETFA) [10] it was 80%.
For the compound `CC#Cc1cc(Cl)c(C2=C(OC(=O)SCC)C3CCC(C3)C2=O)c(OCC(F)(F)F)c1` (centres unmarked) [Compound P-6, [3-[2-Chloro-4-prop-1-ynyl-6-(2,2,2-trifluoroethoxyl)phenyl]-4-oxo-2-bicyclo[3.2.1]oct-2-enyl]ethylsulfanylformate], the pest or weed control at 250 g/ha in assay [1] amounted to 0%; in assay [2] it was 10%; in assay [4] it was 20%; in the assay on Setaria faberi (SETFA) [5] it was 10%; in assay [6], 0%; in assay [7], 50%. For the same compound, the values for the pest or weed control at 250 g/ha (in assay [8]; in assay [9]; with Setaria faberi (SETFA) [10]) were 80%, 20% and 50%, respectively.
As to `C#Cc1ccc(C2C(=O)C(C)(C)OC(C)(C)C2=O)c(C)c1` [Compound X-1, reference compound], the pest or weed control at 15.625 g/ha in assay [11] was determined as 20%; in assay [12] it was 0%; with Setaria faberi (SETFA) [13] it was 0%. For the same compound, the pest or weed control at 62.5 g/ha in assay [11] was 10%; in [12], 0%; in the assay on Setaria faberi (SETFA) [13] it was 30%.
Take `C#Cc1cc(C)c(C2C(=O)C3CCC(C3)C2=O)c(C)c1` (centres unmarked) [Compound X-2, reference compound]: the figures for the pest or weed control at 15.625 g/ha (in [11]; in assay [12]; in the assay with Setaria faberi (SETFA) [13]) were 0%, 0% and 50%, respectively. Moreover, the pest or weed control at 62.5 g/ha came out at 10% in assay [11], 70% in assay [12] and 60% in the assay on Setaria faberi (SETFA) [13].
`C#Cc1cc(C)c(C2C(=O)CC(CC3CCOCC3)CC2=O)c(C)c1` (centres unmarked) [Compound X-3, reference compound]: the results for the pest or weed control at 15.625 g/ha (in assay [11]; in assay [12]; with Setaria faberi (SETFA) [13]) were 30%, 20% and 60%, respectively. Also, the results for the pest or weed control at 62.5 g/ha (in assay [11]; in assay [12]; with Setaria faberi (SETFA) [13]) were 60%, 50% and 70%, respectively.
